Measurements taken from US8173631B2, “Cyclic amine compounds” (Daiichi Sankyo Company, Limited, priority 2008, dated 2012).

The compounds below were run against T1, human calcium-sensing receptor (CaSR) (Homo sapiens, UniProt P41180) (assay: Inhibitory activity on calcium-sensing receptor (CaSR), intracellular calcium increase as indicator (FLIPR, CHO/hCaSR)). Conditions: CHO cells stably expressing human CaSR; inhibition of intracellular Ca increase induced by extracellular CaCl2.
T1 construct: expressed in transfected cells
T1 sequence (P41180 20-1078): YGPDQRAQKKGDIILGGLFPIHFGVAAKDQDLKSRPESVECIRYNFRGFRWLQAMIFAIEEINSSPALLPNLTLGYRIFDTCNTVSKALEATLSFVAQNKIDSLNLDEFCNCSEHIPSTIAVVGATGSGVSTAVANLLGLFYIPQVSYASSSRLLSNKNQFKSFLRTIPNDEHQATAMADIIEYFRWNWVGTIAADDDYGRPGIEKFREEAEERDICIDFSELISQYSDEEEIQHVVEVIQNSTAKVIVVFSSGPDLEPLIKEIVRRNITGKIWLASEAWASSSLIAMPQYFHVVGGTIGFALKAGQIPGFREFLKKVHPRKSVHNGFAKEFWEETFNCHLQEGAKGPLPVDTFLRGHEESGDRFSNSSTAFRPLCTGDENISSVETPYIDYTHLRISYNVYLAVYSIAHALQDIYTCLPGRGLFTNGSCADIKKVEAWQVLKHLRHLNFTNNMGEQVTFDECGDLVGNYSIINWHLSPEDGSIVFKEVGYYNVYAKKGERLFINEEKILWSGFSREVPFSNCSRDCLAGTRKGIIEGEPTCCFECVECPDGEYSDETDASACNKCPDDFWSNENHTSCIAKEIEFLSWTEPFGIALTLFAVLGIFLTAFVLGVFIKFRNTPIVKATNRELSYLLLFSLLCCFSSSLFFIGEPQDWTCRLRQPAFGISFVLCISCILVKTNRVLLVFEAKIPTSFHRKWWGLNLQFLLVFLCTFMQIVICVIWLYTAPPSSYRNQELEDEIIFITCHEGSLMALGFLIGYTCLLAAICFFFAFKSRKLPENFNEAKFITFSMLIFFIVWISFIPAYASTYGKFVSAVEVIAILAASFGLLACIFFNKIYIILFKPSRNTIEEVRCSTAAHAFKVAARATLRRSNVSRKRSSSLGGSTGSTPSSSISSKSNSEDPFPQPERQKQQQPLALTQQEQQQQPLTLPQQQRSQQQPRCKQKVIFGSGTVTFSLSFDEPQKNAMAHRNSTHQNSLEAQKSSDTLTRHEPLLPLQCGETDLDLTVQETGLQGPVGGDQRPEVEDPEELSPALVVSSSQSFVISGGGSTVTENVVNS
Assay type: cell-based
Procedure: Evaluation of inhibitory activity on calcium-sensing receptor (CaSR) using intracellular calcium increase as an indicator
The preparation which is prepared by adding CHO/hCaSR to F12 medium (manufactured by Invitrogen) containing 10% fetal bovine serum to have 2×10^5 cells/mL was applied to a 384-well in an amount of 50 μL/well, and then incubated overnight in a CO2 incubator. The culture supernatant was completely removed, the assay buffer (20 mM HEPES, HBSS (Ca and Mg free) containing 2.5 mM probenecid, pH 7.4) containing Calcium 3 (manufactured by Molecular Devices), i.e., a fluorescent intracellular calcium indicator, was added thereto in an amount of 25 μL/well, and the mixture was maintained for 1 hour in a CO2 incubator. Meanwhile, Calcium 3 was prepared according to the protocol enclosed in FLIPR Calcium 3 Assay Kit (manufactured by Molecular Devices). After maintaining it for 1 hour, a solution in which the test compound is prepared to have 2.1 to 20,000 nM (final concentration of 1.05 to 10,000 nM) by an assay buffer was added thereto in an amount of 25 μL/well, and maintained for 15 minutes in a CO2 incubator. Then, the CaCl2 solution prepared to have […] by using the assay buffer was added in an amount of 25 μL/well, and the resulting intracellular Ca increase (i.e., fluorescence intensity) was measured over time using a fluorescence imaging plate reader (FLIPR, manufactured by Molecular Devices). From the data obtained, the difference between the fluorescence intensity before the addition of CaCl2 solution and the maximum fluorescence intensity after the addition of CaCl2 solution was calculated, and the 50% inhibition concentration (IC50) of the test compound was obtained.

| SMILES | IC50 [µM] |
| --- | --- |
| C[C@@H](OC[C@H](O)CN1CCC[C@H]1Cc1ccc(Cl)c(Cl)c1)c1cc(F)ccc1CCC(=O)O [Example 96] | ≤ 3.21 |
| CCC[C@@H](OC[C@H](O)CN1CCC[C@H]1Cc1ccc(C)c(F)c1)c1ccc(C)cc1CCC(=O)O [Example 64] | ≤ 3.29 |
| CCc1cc(C[C@@H]2CCCN2C[C@@H](O)CO[C@H](CC)c2cc(F)ccc2CCC(=O)O)ccc1Cl [Example 105] | ≤ 3.16 |
| CC[C@@H](OC[C@H](O)CN1CCC[C@H]1Cc1ccc(C)c(F)c1)c1cccc(OC)c1CCC(=O)O [Example 46] | ≤ 3.28 |
| CC[C@@H](OC[C@H](O)CN1CCC[C@H]1Cc1ccc(C)c(Cl)c1)c1cccc(C)c1CCC(=O)O [Example 172] | ≤ 3.28 |
| CCc1cc(C[C@@H]2CCCN2C[C@@H](O)CO[C@H](C)c2cc(F)c(F)cc2CCC(=O)O)ccc1Cl [Example 147] | ≤ 3.14 |
| Cc1ccc(C[C@@H]2CCCN2C[C@@H](O)CO[C@H](C)c2cc(F)ccc2CCC(=O)O)cc1Cl [Example 166] | ≤ 3.35 |
| Cc1ccc(C[C@@H]2CCCN2C[C@@H](O)COC(C)c2c(Cl)cccc2CCC(=O)O)cc1F (stereo partly drawn) [Example 157] | ≤ 3.35 |
| CC[C@@H](OC[C@H](O)CN1CCC[C@H]1Cc1ccc(C)c(F)c1)c1cccc(Cl)c1CCC(=O)O [Example 112] | ≤ 3.25 |
| Cc1ccc(C[C@@H]2CCCN2C[C@@H](O)CO[C@H](C)c2ccc(Cl)cc2CCC(=O)O)cc1F [Example 78] | ≤ 3.35 |
| CC[C@@H](OC[C@H](O)CN1CCC[C@H]1Cc1ccc(Cl)c(F)c1)c1cccc(Cl)c1CCC(=O)O [Example 143] | ≤ 3.12 |
| C[C@@H](OC[C@H](O)CN1CCC[C@H]1Cc1ccc(Cl)c(F)c1)c1ccccc1CCC(=O)O [Example 159] | ≤ 3.45 |
| CCc1cc(C[C@@H]2CCCN2C[C@@H](O)CO[C@H](C)c2cccc(F)c2CCC(=O)O)ccc1Cl [Example 93] | ≤ 3.25 |
| CC[C@@H](OC[C@H](O)CN1CCC[C@H]1Cc1ccc(Cl)c(Cl)c1)c1cccc(Cl)c1CCC(=O)O [Example 113] | ≤ 3.03 |
| CCC[C@@H](OC[C@H](O)CN1CCC[C@H]1Cc1ccc(C)c(F)c1)c1cccc(OC)c1CCC(=O)O [Example 65] | ≤ 3.19 |
| Cc1cccc([C@@H](C)OC[C@H](O)CN2CCC[C@H]2Cc2ccc(Cl)c(F)c2)c1CCC(=O)O [Example 170] | ≤ 3.35 |
| Cc1ccc(C[C@@H]2CCCN2C[C@@H](O)CO[C@H](C)c2cccc(Cl)c2CCC(=O)O)cc1F [Example 80] | ≤ 3.35 |
| Cc1ccc([C@@H](C)OC[C@H](O)CN2CCC[C@H]2Cc2ccc(Cl)c(F)c2)c(CCC(=O)O)c1 [Example 128] | ≤ 3.35 |
| C[C@@H](OC[C@H](O)CN1CCC[C@H]1Cc1ccc(Cl)c(F)c1)c1cc(F)ccc1CCC(=O)O [Example 130] | ≤ 3.32 |
| CC[C@@H](OC[C@H](O)CN1CCC[C@H]1Cc1ccc(C)c(Cl)c1)c1cccc(F)c1CCC(=O)O [Example 138] | ≤ 3.25 |
| C[C@@H](OC[C@H](O)CN1CCC[C@H]1Cc1ccc(Cl)c(F)c1)c1cc(F)c(F)cc1CCC(=O)O [Example 149] | ≤ 3.2 |
| CCOc1cccc([C@@H](C)OC[C@H](O)CN2CCC[C@H]2Cc2ccc(C)c(F)c2)c1CCC(=O)O [Example 71] | ≤ 3.28 |
| CC[C@@H](OC[C@H](O)CN1CCC[C@H]1Cc1ccc(Cl)c(Cl)c1)c1cccc(OC)c1CCC(=O)O [Example 115] | ≤ 3.05 |
| Cc1ccc([C@@H](C)OC[C@H](O)CN2CCC[C@H]2Cc2ccc(C)c(F)c2)c(CCC(=O)O)c1 [Example 4, 3-{2-[(1R)-1-({(2R)-3-[(2S)-2-(3-Fluoro-4-methylbenzyl)pyrrolidin-1-yl]-2-hydroxypropyl}oxy)ethyl]-5-methylphenyl}propanoic acid] | ≤ 3.5 |
| CCc1cc(C[C@@H]2CCCN2C[C@@H](O)CO[C@H](CC)c2cccc(C)c2CCC(=O)O)ccc1Cl [Example 122] | ≤ 3.19 |
| Cc1ccc(C[C@@H]2CCCN2C[C@@H](O)CO[C@H](C)c2cccc(F)c2CCCCC(=O)O)cc1F [Example 58] | ≤ 3.27 |
| CCc1cc(C[C@@H]2CCCN2C[C@@H](O)CO[C@H](CC)c2ccc(Cl)cc2CCC(=O)O)ccc1Cl [Example 101] | ≤ 3.06 |
